# Assay results taken from US11339193B2, “CDP protein secretion inhibitors” (KEZAR LIFE SCIENCES, priority 2018, dated 2022).
# Peptide text beside a SMILES is read from it.
# How the values were obtained:
# Assay type in all cases: cell-based
# [1] = tested on: Prl-ss+10aa/Gaussia Luciferase; assay: Prl-ss-Gluc assay (constitutively active or 24 hr Dox inducible); conditions: Flp-In 293 T-REx cells, 24 hours; read-out: Prl IC50
# Summary of the method: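 Stable Flp-In 293 T-REx lines express Prl signal sequence+10aa fused to Gaussia luciferase, either constitutively (pcDNA5/FRT) or under the T-REx promoter (pcDNA5/FRT/TO). Cells plated the day before; compounds in DMSO/media (with doxycycline for the inducible line, 24 h) incubated at 37 °C, 5% CO2.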
# [2] = tested on: PD1-ss+10aa/Gaussia Luciferase; assay: Dox induced PD1-ss-Gluc assay; conditions: Flp-In 293 T-REx cells, doxycycline, 24 hours; read-out: PD1ss Gluc IC50
# Summary of the method: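 Stable Flp-In 293 T-REx line expressing doxycycline-inducible Gaussia luciferase fused to the PD1 signal sequence plus 10 amino acids. Cells plated the day before, then exposed to compound dilutions in DMSO/media containing doxycycline at 37 °C, 5% CO2.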
# [3] = tested on: TNFα-FL/Gaussia Luciferase; assay: Dox induced TNFα-FL-Gluc assay; conditions: Flp-In 293 T-REx cells, doxycycline, 24 hours; read-out: TNFa FL Gluc IC50
# Summary of the method: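 Stable Flp-In 293 T-REx line expressing full-length TNFα (aa 1-233) fused at its C-terminus to Gaussia luciferase under doxycycline-inducible control. Cells plated the day before, then given compound dilutions in DMSO/media containing doxycycline and incubated at 37 °C, 5% CO2.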
Compound,IC50 [1] [µM],IC50 [2] [nM],IC50 [3] [nM]
C#CC[C@H]1OC(=O)[C@H](C)N(C)C(C)[C@H](C[C@H](C)CCCC)NC(=O)[C@H](Cc2ccccc2)N(C)C(=O)[C@H](CC(C)C)NC(=O)[C@H](CC(C)C)N(C)C(=O)[C@H](C[C@H](C)CCCC)NC1=O (stereo partly drawn) [C-01],11.6,56,79
"CC(C)C[C@@H]1NC(=O)[C@H](Cc2cn(Cc3ccccc3)c3ccccc23)N(C)C(=O)[C@H](CC(C)C)NC(=O)[C@H](CC(C)C)N(C)C(=O)[C@H](CC(C)C)NC(=O)[C@@H](CCC#N)OC(=O)[C@H](C)N(C)C1=O [C-16] (HELM PEPTIDE1{L.[meA].[N#CCC[C@@H](O[*:1])C(=O)[*:2]].L.[meL].L.[CN([C@@H](Cc1cn(Cc2ccccc2)c2ccccc12)C(=O)[*:2])[*:1]]}$PEPTIDE1,PEPTIDE1,1:R1-7:R2$$$V2.0)",1.82,27,92
